Assay type in all cases: functional
In test [1] the test system is Rhizoctonia solani. Description: Fungicidal activity against Rhizoctonia solani assessed as level-3 black scurf infected potato Nicola progeny tubers using in-furrow application of 25% active ingredient containing compound under field trial conditions (reference value: 22.4%).
Test [2] relates to Rhizoctonia solani. Description: Fungicidal activity against Rhizoctonia solani assessed as level-3 black scurf infected potato Nicola progeny tubers using 25% active ingredient containing compound treated potato seeds and in-furrow compound application under field trial conditions (reference value: 22.4%).
For test [3], the system named is Rhizoctonia solani. Description: Fungicidal activity against Rhizoctonia solani assessed as level-3 black scurf infected potato Nicola progeny tubers using 25% active ingredient containing compound treated potato seeds under field trial conditions (reference value: 22.4%).
The subject of test [4] is Rhizoctonia solani. The test can be described thus: Fungicidal activity against Rhizoctonia solani assessed as level-2 black scurf infected potato Nicola progeny tubers using 25% active ingredient containing compound treated potato seeds under field trial conditions (reference value: 17.9%).
Test [5] relates to Rhizoctonia solani. Description: Fungicidal activity against Rhizoctonia solani assessed as level-2 black scurf infected potato Nicola progeny tubers using 25% active ingredient containing compound treated potato seeds and in-furrow compound application under field trial conditions (reference value: 17.9%).
For test [6], the system named is Rhizoctonia solani. The test can be described thus: Fungicidal activity against Rhizoctonia solani assessed as level-2 black scurf infected potato Nicola progeny tubers using in-furrow application of 25% active ingredient containing compound under field trial conditions (reference value: 17.9%).
The test system of test [7] is Rhizoctonia solani. The test can be described thus: Fungicidal activity against Rhizoctonia solani assessed as level-1 black scurf infected potato Nicola progeny tubers using in-furrow application of 25% active ingredient containing compound under field trial conditions (reference value: 0.0%).
The test system of test [8] is Rhizoctonia solani. The test can be described thus: Fungicidal activity against Rhizoctonia solani assessed as level-1 black scurf infected potato Nicola progeny tubers using 25% active ingredient containing compound treated potato seeds and in-furrow compound application under field trial conditions (reference value: 0.0%).
In test [9] the test system is Rhizoctonia solani. Description: Fungicidal activity against Rhizoctonia solani assessed as level-1 black scurf infected potato Nicola progeny tubers using 25% active ingredient containing compound treated potato seeds under field trial conditions (reference value: 0.0%).
The test system of test [10] is Rhizoctonia solani. Description: Fungicidal activity against Rhizoctonia solani assessed as level-4 black scurf infected potato Nicola progeny tubers using in-furrow application of 25% active ingredient containing compound under field trial conditions (reference value: 59.7%).
Test [11] has as its system Rhizoctonia solani. Description: Fungicidal activity against Rhizoctonia solani assessed as level-4 black scurf infected potato Nicola progeny tubers using 25% active ingredient containing compound treated potato seeds and in-furrow compound application under field trial conditions (reference value: 59.7%).
In test [12] the test system is Rhizoctonia solani. Description: Fungicidal activity against Rhizoctonia solani assessed as level-4 black scurf infected potato Nicola progeny tubers using 25% active ingredient containing compound treated potato seeds under field trial conditions (reference value: 59.7%).

The values below come from ChEMBL document CHEMBL3045516, “Field study of the relative susceptibility of eleven potato (Solanum tuberosum L.) varieties and the efficacy of two fungicides against Rhizoctonia solani attack” (2010).

The structures appear in SMILES notation.

On to `CO/C=C(\C(=O)OC)c1ccccc1Oc1cc(Oc2ccccc2C#N)ncn1` [Azoxystrobin], for which the Activity in [1] was determined as 69%; in test [2], 0.01%; in [3], 0.01%; in test [4], 90%; in test [5] it was 83.3%; in test [6], 31%. The Activity in test [7] amounted to 0.01%; in test [8] it was 16.7%; in test [9], 0.01%; in [10], 0.01%; in test [11], 0.01%; in test [12] it was 10%.

Consider `O=C(Nc1ccccc1)N(Cc1ccc(Cl)cc1)C1CCCC1` [PENCYCURON], for which the Activity amounted to 19.7% in test [3], 70.8% in test [4], 8.1% in test [9] and 1.4% in [12].
